From patent US20130178448A1, “Treatment of Respiratory Disorders” (priority 2010, published 2013)

What was measured:
[1] = rat, in vivo, 4 h
Description: Vehicle and test compounds (Groups 1-7) were each administered orally (PO) to fasted rats. Each group included five animals. […] The animals were sacrificed four hours after dosing and gastric mucosal lesions were scored. A score of 50 percent or more (≧50%) relative to the aspirin-treated group (150 mg/kg PO, set as 100%) is considered positive in gastric irritation and is shown in parenthesis; and
Seven groups of rats, each group consisting of five animals, were each administered orally (PO) with test formulations and control compounds. […] Group 3 animals were treated with 150 mg/kg aspirin, and Group 4 animals were treated with 100 mg/kg of ibuprofen dissolved in 1% CMC vehicle.
The animals were sacrificed four hours after dosing with the test compound (or control vehicle) and gastric mucosal lesions were then scored according to the following criteria: 0=no lesions, 1=hyperemia, 2=one or two slight lesions, 3=more than two slight lesions or severe lesions, 4=very severe lesions (Herrerias et al., Dig. Dis. Sci., 2003). A score of 50 percent or more (≧50%) relative to the aspirin-treated group (150 mg/kg PO, set as 100%) was considered positive in gastric irritation and is shown in parenthesis in the table of FIG. 5.

[2] = tested on: Influenza A/PR/8/34 (H1N1 virus); assay: In vivo mouse viral challenge (weight loss and survival of influenza-challenged mice); parameters: species or system mice (C57BLK/6); conditions: intraperitoneal, 335.6 μg/animal in 10 μl DMSO
Description: Five groups (n=10) of C57BLK/6 female mice (6-7 weeks old), were divided into five experimental groups containing ten animals each. On day 1, animals received an intranasal lethal dose (50 μl total, 25 μl nostril) of Influenza A/PR/8/34 under halothane induced anaesthesia.
The animals were weighed, and monitored for signs of infection daily up to day 6 when all animals were culled. FIGS. 1-4 represent the average weight loss per group and animal survival.
Using standard techniques as described above, mice were infected with a H1N1 virus which was allowed to become established in each of the subjects. Each test mouse was then treated with ibuprofen, either intraperitoneally (in DMSO) or orally (in the lipid/ethanol formulation, BC1054). The weight loss of both treated and untreated mice was then determined.

Compound | ulceration score relative to aspirin (150 mg/kg PO, set as 100%) [1] | percentage survival rate compared with control mice ([2]; single dose day 3, especially after day four, FIG. 2) | higher reduction in weight loss than in the control mice ([2]; single dose day 3 post-challenge, vs vehicle control, FIG. 1)
CC(=O)Oc1ccccc1C(=O)O [Aspirin] | 100% | – | –
CC(C)Cc1ccc(C(C)C(=O)O)cc1 (stereo not drawn) [ibuprofen] | – | lower percentage survival rate than the control mice | ~30%
